Laboratory results as given in publication PMC7377239, “Cardiovascular Effects of Polychlorinated Biphenyls and Their Major Metabolites” (Environmental Health Perspectives, 2020).
Where a name gives a salt, the structure may show the parent alone. Read-outs that look alike come from different tables or passages of the source.

Assays:
[1] = system: iCell endothelial cells (human iPSC-derived ECs); assay: High-content imaging cytotoxicity in iCell endothelial cells, 24 h; format: cell-based; conditions: Homo sapiens, Endothelial cell, iPSC-EC, 24 hr; for viability at 0.1 µM / activity at 0.1 µM: 0.10 µM; for minimal effective concentration: top concentration 100.00 µM
How it was run: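 Human iPSC-derived endothelial cells (passages 1–5) were grown to a fibronectin-coated monolayer, then exposed 24 h at 37 °C with 0.5% DMSO vehicle. Staining was Hoechst 33342, MitoTracker Orange and calcein AM, read by high-content imaging. Point of departure came from 4-parameter logistic fits, with a 1-SD vehicle cutoff and 100 µM as the top concentration.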

[2] = system: iCell endothelial cells (human iPSC-derived ECs); assay: Tube formation (tubulogenesis) assay in iCell endothelial cells, 18 h; format: cell-based; conditions: Homo sapiens, Endothelial cell, iPSC-EC tube formation, 18 hr; for activity at 0.1 µM: 0.10 µM; for minimal effective concentration: top concentration 100.00 µM
How it was run: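 iCell ECs (passages 1–5) seeded 7,500 cells/well on reduced-growth-factor Geltrex in starvation medium, exposed overnight at 37°C to compounds in triplicate concentration–response (0.5% DMSO vehicle). Calcein AM staining, 4× imaging, angiogenesis image analysis; readouts normalized to vehicle, four-parameter logistic fit, POD at 1 SD of vehicle; 100 μM assigned NOAEL if no response.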

[3] = 0.00 µM control = 100.00, read-out: endo.cyto.24hr
[4] = 0.00 µM control = 100.00, read-out: endo.mito.24hr
[5] = 0.00 µM control = 100.00, read-out: endo.mitoint.24hr
[6] = 0.00 µM control = 100.00, read-out: endo.nma.24hr
[7] = 0.00 µM control = 100.00, read-out: endo.tc.24hrs
[8] = 0.00 µM control = 100.00, read-out: endo.mtl.18hr
[9] = 0.00 µM control = 100.00, read-out: endo.tlps.18hr
[10] = 0.00 µM control = 100.00, read-out: endo.tta.18hr
[11] = 0.00 µM control = 100.00, read-out: endo.ttl.18hr

Compound: O=S(=O)(O)Oc1cc(Cl)c(-c2cc(Cl)ccc2Cl)cc1Cl [4-yl PCB 52 sulfate]
- viability at 0.01 µM [1, 3]: 99.1%
- activity at 0.01 µM [1, 4]: 98.6%
- activity at 0.01 µM [1, 5]: 93.7%
- activity at 0.01 µM [1, 6]: 105%
- viability at 0.01 µM [1, 7]: 99.1%
- viability at 0.1 µM [1, 3]: 92.5%
- activity at 0.1 µM [1, 4]: 92.7%
- activity at 0.1 µM [1, 5]: 90.1%
- activity at 0.1 µM [1, 6]: 105%
- viability at 0.1 µM [1, 7]: 92.5%
- viability at 1 µM [1, 3]: 95.5%
- activity at 1 µM [1, 4]: 96.1%
- activity at 1 µM [1, 5]: 96.9%
- activity at 1 µM [1, 6]: 102%
- viability at 1 µM [1, 7]: 95.5%
- viability at 10 µM [1, 3]: 104%
- activity at 10 µM [1, 4]: 103%
- activity at 10 µM [1, 5]: 82.8%
- activity at 10 µM [1, 6]: 99.1%
- viability at 10 µM [1, 7]: 104%
- viability at 100 µM [1, 3]: 71.2%
- activity at 100 µM [1, 4]: 66.7%
- activity at 100 µM [1, 5]: 92.6%
- activity at 100 µM [1, 6]: 104%
- viability at 100 µM [1, 7]: 71.4%
- minimal effective concentration ([1]; read-out: endo.cyto.24hr POD): 41.2 µM
- minimal effective concentration ([1]; read-out: endo.mito.24hr POD): 41.2 µM
- minimal effective concentration ([1]; read-out: endo.mitoint.24hr POD): 100 µM
- minimal effective concentration ([1]; read-out: endo.nma.24hr POD): 100 µM
- minimal effective concentration ([1]; read-out: endo.tc.24hrs POD): 50.3 µM
- activity at 0.01 µM [2, 8]: 116%
- activity at 0.01 µM [2, 9]: 87.8%
- activity at 0.01 µM [2, 10]: 122%
- activity at 0.01 µM [2, 11]: 129%
- activity at 0.1 µM [2, 8]: 108%
- activity at 0.1 µM [2, 9]: 115%
- activity at 0.1 µM [2, 10]: 115%
- activity at 0.1 µM [2, 11]: 119%
- activity at 1 µM [2, 8]: 109%
- activity at 1 µM [2, 9]: 108%
- activity at 1 µM [2, 10]: 112%
- activity at 1 µM [2, 11]: 119%
- activity at 10 µM [2, 8]: 73.9%
- activity at 10 µM [2, 9]: 46.2%
- activity at 10 µM [2, 10]: 70%
- activity at 10 µM [2, 11]: 71.1%
- activity at 100 µM [2, 8]: 46.8%
- activity at 100 µM [2, 9]: 10.1%
- activity at 100 µM [2, 10]: 0.18%
- activity at 100 µM [2, 11]: 0.34%
- minimal effective concentration ([2]; read-out: endo.mtl.18hr POD): 7.44 µM
- minimal effective concentration ([2]; read-out: endo.tlps.18hr POD): 5.74 µM
- minimal effective concentration ([2]; read-out: endo.tta.18hr POD): 8.83 µM
- minimal effective concentration ([2]; read-out: endo.ttl.18hr POD): 9.64 µM
